The nature of series [1]: Selectivity index ratio of CC50 for cytotoxicity against human MRC5 cells to IC50 for antibacterial activity against Acinetobacter baumannii assessed as inhibition of bacterial growth. The series is classed as toxicity, cell-based. The note with it: read-out: Ratio CC50/IC50.
A further series deals with Plasmodium falciparum. Put plainly: Antiplasmodial activity against asexual blood stage Plasmodium falciparum K1 assessed as inhibition of parasitic growth. In kind it is functional, organism-based.
Series [2] has as its system Mycobacterium tuberculosis. Put plainly: Antitubercular activity against Mycobacterium tuberculosis H37Ra assessed as inhibition of bacterial growth. The series is classed as functional, organism-based.
Series [3] in a line: Selectivity index ratio of CC50 for cytotoxicity against human MRC5 cells to IC50 for antiplasmodial activity against asexual blood stage Plasmodium falciparum K1 assessed as inhibition of parasitic growth. The series is classed as toxicity, cell-based. The note with it: read-out: Ratio CC50/IC50.
The test system of another series is Acinetobacter baumannii. Put plainly: Antibacterial activity against Acinetobacter baumannii assessed as inhibition of bacterial growth. The series is classed as functional, organism-based.
Series [4] is described as follows: Cytotoxicity against human MRC5 cells assessed as reduction in cell viability. In kind it is toxicity, cell-based.

For `CN(O)C(=O)CCCP(=O)(OCOC(=O)C(C)(C)C)OCOC(=O)C(C)(C)C`, the selectivity ratio in series [1] is more than 4.3; in series [3], more than 59. The IC50 was 0.86 µM with Plasmodium falciparum, more than 56.1 µM in series [2] and 12 µM with Acinetobacter baumannii. In series [4], the half-maximal cytotoxic concentration (CC50) was more than 51 µM.
With `CN(O)C(=O)CCCP(=O)(OCOC(=O)c1ccccc1)OCOC(=O)c1ccccc1`, the selectivity ratio came to 3.4 in series [1] and 234 in series [3]. Further, the results for the IC50 (with Plasmodium falciparum; in series [2]; in the series on Acinetobacter baumannii) were 0.12 µM, more than 64 µM and 8.2 µM, respectively. Also, in series [4], the CC50 turned out to be 28.1 µM.
As for `CC(C)OC(=O)OCOP(=O)(CCCC(=O)N(C)O)OCOC(=O)OC(C)C`, the IC50 was 0.11 µM in the series on Plasmodium falciparum, more than 64 µM in series [2] and more than 149 µM in the series with Acinetobacter baumannii. Also, the selectivity ratio in series [3] is more than 461. Also, the CC50 in series [4] was more than 50.7 µM.
Regarding `CCON(C)C(=O)CCCP(=O)(OCOC(=O)c1coc(-c2ccccc2O)n1)OCOC(=O)c1coc(-c2ccccc2O)n1`, the figures for the selectivity ratio in series [1] and in series [3] were 1.6 and 48, respectively. Also, the IC50 is 0.54 µM in the series with Plasmodium falciparum, more than 64 µM in series [2] and 16 µM in the series on Acinetobacter baumannii. In addition, the CC50 in series [4] is 26 µM.
As for `CN(O)C(=O)CCCP(=O)(OCOC(=O)OCCCc1ccccc1)OCOC(=O)OCCCc1ccccc1`, the selectivity ratio in series [1] was more than 25; in series [3] it was more than 711. Further, the IC50 in the series on Plasmodium falciparum is 0.09 µM; in series [2] it was more than 64 µM; with Acinetobacter baumannii, 2.6 µM. Moreover, the CC50 in series [4] was more than 64 µM.
With `CN(O)C(=O)CCCP(=O)(OCOC(=O)/C=C/c1ccccc1)OCOC(=O)/C=C/c1ccccc1`, the selectivity ratio in series [1] came to 5.4; in series [3], 606. The IC50 is 0.05 µM with Plasmodium falciparum, more than 64 µM in series [2] and 5.6 µM with Acinetobacter baumannii. For the same compound, the cytotoxic concentration (CC50) in series [4] was 30.3 µM.
With `CN(O)C(=O)CCCP(=O)(OCOC(=O)c1ccc(Cl)cc1)OCOC(=O)c1ccc(Cl)cc1`, the selectivity ratio in series [1] was 0.8; in series [3] it was 223. Moreover, the IC50 with Plasmodium falciparum was 0.14 µM; in series [2], more than 64 µM; in the series on Acinetobacter baumannii, 39 µM. For the same compound, in series [4], the CC50 came out at 31.2 µM.
On to `CCON(C)C(=O)CCCP(=O)(OCOC(=O)c1cccc(O)c1O)OCOC(=O)c1cccc(O)c1O`, for which the IC50 is 1.05 µM in the series on Plasmodium falciparum, more than 64 µM in series [2] and more than 121 µM in the series on Acinetobacter baumannii. The selectivity ratio in series [3] is more than 61. Moreover, in series [4], the half-maximal cytotoxic concentration (CC50) was more than 64 µM.
As to `CCCCCCCC(=O)OCOP(=O)(CCCC(=O)N(C)O)OCOC(=O)CCCCCCC`, the selectivity ratio in series [1] was 103; in series [3], 1340. Moreover, the values for the IC50 (in the series with Plasmodium falciparum; in series [2]; in the series with Acinetobacter baumannii) were 0.03 µM, more than 64 µM and 0.39 µM, respectively. In series [4], the CC50 was 40.3 µM.
Regarding `CN(O)C(=O)CCCP(=O)(OCOC(=O)c1cccc(Cl)c1)OCOC(=O)c1cccc(Cl)c1`, the selectivity ratio in series [1] is more than 1.2; in series [3], more than 457. Also, the IC50 with Plasmodium falciparum was 0.14 µM; in series [2] it was more than 64 µM; in the series on Acinetobacter baumannii it was 54 µM. Moreover, the cytotoxic concentration (CC50) in series [4] is more than 64 µM.
Regarding `CCON(C)C(=O)CCCP(=O)(OCOC(=O)c1ccccc1O)OCOC(=O)c1ccccc1O`, the results for the concentration for half-maximal inhibition (IC50) (in the series with Plasmodium falciparum; in series [2]; with Acinetobacter baumannii) were 0.28 µM, more than 64 µM and more than 129 µM, respectively. For the same compound, in series [3], the selectivity ratio was more than 229. The cytotoxic concentration (CC50) in series [4] was more than 64 µM.
Take `CCCCCCCC(=O)OCOP(=O)(OCOC(=O)CCCCCCC)C(CCC(=O)N(C)O)c1ccc(Cl)c(Cl)c1` (stereo not drawn): the figures for the selectivity ratio in series [1] and in series [3] were 2 and 51, respectively. Further, the 50% inhibitory concentration (IC50) with Plasmodium falciparum is 0.44 µM; in series [2] it was more than 64 µM; in the series on Acinetobacter baumannii, 11 µM. Further, in series [4], the cytotoxic concentration (CC50) was 22.5 µM.
For `CN(O)C(=O)CCCP(=O)(OCOC(=O)CCCCc1ccccc1)OCOC(=O)CCCCc1ccccc1`, the selectivity ratio in series [1] is more than 27; in series [3], more than 1280. Further, the results for the 50% inhibitory concentration (IC50) (in the series on Plasmodium falciparum; in series [2]; with Acinetobacter baumannii) were 0.05 µM, more than 64 µM and 2.4 µM, respectively. Also, the half-maximal cytotoxic concentration (CC50) in series [4] was more than 64 µM.
`CN(O)C(=O)CCC(c1ccc(Cl)c(Cl)c1)P(=O)(OCOC(=O)/C=C/c1ccccc1)OCOC(=O)/C=C/c1ccccc1` (stereo not drawn): the half-maximal inhibitory concentration (IC50) with Plasmodium falciparum was 4.42 µM; in series [2], more than 64 µM; in the series on Acinetobacter baumannii, more than 97 µM. For the same compound, the selectivity ratio in series [3] stood at 5.6. Besides, in series [4], the 50% cytotoxic concentration (CC50) came out at 24.6 µM.
On the same counts, the results for `CC(C)OC(=O)OCOP(=O)(OCOC(=O)OC(C)C)C(CCC(=O)N(C)O)c1ccc(Cl)c(Cl)c1` (stereo not drawn) are 0.23 µM, more than 64 µM, more than 111 µM, 33 and 7.58 µM.
Consider `CN(O)C(=O)CCCP(=O)(OCOC(=O)c1ccc2ccccc2c1)OCOC(=O)c1ccc2ccccc2c1`, for which the selectivity ratio amounted to 0.53 in series [1] and 109 in series [3]. The half-inhibitory concentration (IC50) is 0.25 µM in the series with Plasmodium falciparum, more than 64 µM in series [2] and 51 µM in the series on Acinetobacter baumannii. The half-maximal cytotoxic concentration (CC50) in series [4] was 27.2 µM.
`CN(O)C(=O)CCC(c1ccc(Cl)c(Cl)c1)P(=O)(OCOC(=O)C(C)(C)C)OCOC(=O)C(C)(C)C` (stereo not drawn): the IC50 with Plasmodium falciparum is 0.44 µM; in series [2], more than 64 µM; in the series on Acinetobacter baumannii it was more than 112 µM. Besides, the selectivity ratio in series [3] was 15. For the same compound, the 50% cytotoxic concentration (CC50) in series [4] is 6.81 µM.
Regarding `CCCCCCCCOC(=O)OCOP(=O)(CCCC(=O)N(C)O)OCOC(=O)OCCCCCCCC`, the selectivity ratio in series [1] is 54; in series [3] it was 539. The values for the half-maximal inhibitory concentration (IC50) (in the series with Plasmodium falciparum; in series [2]; in the series on Acinetobacter baumannii) were 0.07 µM, more than 64 µM and 0.7 µM, respectively. Also, in series [4], the cytotoxic concentration (CC50) was determined as 37.7 µM.
As to `COc1ccc(C(=O)OCOP(=O)(CCCC(=O)N(C)O)OCOC(=O)c2ccc(OC)cc2)cc1`, the selectivity ratio in series [1] is 3.3; in series [3], 184. Further, the results for the 50% inhibitory concentration (IC50) (in the series on Plasmodium falciparum; in series [2]; with Acinetobacter baumannii) were 0.18 µM, more than 64 µM and 9.9 µM, respectively. In addition, the CC50 in series [4] stood at 33.1 µM.
`Cc1ccc(C(=O)OCOP(=O)(CCCC(=O)N(C)O)OCOC(=O)c2ccc(C)cc2)cc1`: the values for the selectivity ratio in series [1] and in series [3] were more than 5.8 and more than 112, respectively. In addition, the half-inhibitory concentration (IC50) with Plasmodium falciparum was 0.57 µM; in series [2], more than 64 µM; with Acinetobacter baumannii it was 11 µM. The CC50 in series [4] was more than 64 µM.
Regarding `CCON(C)C(=O)CCCP(=O)(OCOC(=O)OCc1coc(-c2ccccc2O)n1)OCOC(=O)OCc1coc(-c2ccccc2O)n1`, the selectivity ratio in series [1] is 3.6; in series [3], 61. Further, the IC50 with Plasmodium falciparum is 0.42 µM; in series [2], more than 64 µM; with Acinetobacter baumannii, 7.1 µM. Further, the cytotoxic concentration (CC50) in series [4] was 25.5 µM.
Regarding `CN(O)C(=O)CCCP(=O)(OCOC(=O)CCc1ccccc1)OCOC(=O)CCc1ccccc1`, the selectivity ratio in series [1] is more than 3; in series [3], more than 711. For the same compound, the concentration for half-maximal inhibition (IC50) in the series with Plasmodium falciparum was 0.09 µM; in series [2] it was more than 64 µM; with Acinetobacter baumannii it was 21 µM. For the same compound, in series [4], the CC50 is more than 64 µM.
Consider `O=CN(O)CCCP(=O)(O)O` [FOSMIDOMYCIN SODIUM], for which the IC50 in series [2] is more than 64 µM. The CC50 in series [4] is more than 64 µM.

What is called IC50 is the concentration at which inhibition is half-maximal. What is called CC50 is the concentration giving 50% cytotoxicity.

Source of the values: ChEMBL document CHEMBL5385862, “Acyloxymethyl and alkoxycarbonyloxymethyl prodrugs of a fosmidomycin surrogate as antimalarial and antibacterial agents” (Eur J Med Chem, 2023).
